Measurements taken from patent US20250144030A1, “OSMOTIC PUMP CONTROLLED-RELEASE TABLET OF INSOLUBLE DRUG AND PREPARATION METHOD THEREFOR” (BEIJING WEHAND-BIO PHARMACEUTICAL CO., LTD, priority 2021, published 2025).
Where a name gives a salt, the structure may show the parent alone. Read-outs that look alike come from different tables or passages of the source.

Experiment: Determination of solubility of Nic drug and solid dispersions
Type: physicochemical
Conditions: for solubility at 2 h: 37 °C, thermodynamic from solid
Experimental: After the drug was dissolved, an equivalent dose of the solid dispersion powder was further added, and oscillated for 2 h. The above operations were repeated until an insoluble solid occurred in the solution.

Row | SMILES | solubility at 2 h (saturated citric acid solution, aqueous buffer, saturated citric acid solution, read-out: Solubility of Saturated Citric Acid Solution mg/ml (37° C.)) [mg/mL] | solubility at 2 h (water, water, water, read-out: Solubility in Water mg/ml (37° C.)) [mg/mL] | Solubility of Saturated Citric Acid Solution mg/ml (37° C.) (saturated citric acid solution, hydrochloride) [mg/mL] | Solubility in Water mg/ml (37° C.) (water, hydrochloride) [mg/mL]
1 | COC(=O)C1=C(C)NC(C)=C(C(=O)OCCN(C)Cc2ccccc2)C1c1cccc([N+](=O)[O-])c1 (stereo not drawn) [α-Form Nic, nicardipine hydrochloride] | 46 | 7.2 |  | 
2 | COC(=O)C1=C(C)NC(C)=C(C(=O)OCCN(C)Cc2ccccc2)C1c1cccc([N+](=O)[O-])c1 (stereo not drawn) [β-Form Nic, nicardipine hydrochloride] |  |  | 50 | 11
